Test results as given in PMC12267471, “Discovery of natural scaffolds as HER2 inhibitors for breast cancer: virtual screening, molecular dynamics, and biological characterization with selectivity profiling” (Scientific Reports, 2025).
Values belong to the compound of their own block, whether it stands above or below them.

Columns and labels:
[1] = test system: BT-474 cells; assay: MTT proliferation assay, BT-474; assay type: cell-based, human
[2] = test system: BT-474 cells; assay: Wound healing assay, BT-474; assay type: cell-based; settings: Homo sapiens
Description: (§1) In a sterile flat-bottom 24-well plate, SKBR3 and BT-474 breast cancer cells were plated at a density of 1 × 10^5 cells/well. […] Wounds were then inflicted across each cell monolayer using a sterile 200 µL pipette tip. Media was aspirated, and cells were washed twice with PBS to remove floating cells and cell debris. Fresh serum-free media was placed up against the well wall to cover the bottom of the well and prevent further cell detachment. Incubation of cells was resumed for five hours at 37 °C in a humidified CO2 incubator. Subsequently, the media were substituted with fresh ones containing various doses of liquiritin, oroxin B, or DMSO as a vehicle control (3 replicates/group) along with EGF (100 ng/mL) as a scattering factor. Wound closure was microscopically monitored in vehicle-treated control wells, and the time frame for wound closure was determined to be 72 h. Before the closure of wounds in the vehicle-treated control wells, the media were removed, cells were washed with PBS and completely fixed using cold methanol for 20 min at 4 °C. An inverted VistaVision microscope was used to take pictures of the wounds monitored at zero and 72 h with a VistaVision Still camera (VWR, Radnor, PA).
(§2) Results were expressed as a percentage of cell migration according to the following Equation[16]: [drawing 2]
(§3) Where Tt is the wound thickness in treatment wells, TDMSO is the thickness of the wound in control wells treated by DMSO, and Tº is the thickness of the wound at zero time. Wound thickness was calculated in three or more randomly selected fields per treatment group.

[3] = test system: SKBR3 cells; assay: MTT proliferation assay, SKBR3; assay type: cell-based, human
[4] = biological target: T1, HER2 kinase (Homo sapiens, UniProt P04626); assay: Z'-LYTE Kinase Assay-Tyr6 Peptide biochemical HER2 kinase assay; settings: for IC50: Tyr6 peptide substrate, read-out: IC50, inhibition of ATP-induced HER2 phosphorylation
T1 construct: HER2 purified kinase domain (amino acids 676–1255); purchased Thermo Fischer Scientific PV3590
Source text: The Z’-LYTE™ Kinase Assay-Tyr6 Peptide kit (Thermo Fischer Scientific™, Madison, WI, USA) was employed to evaluate the potential of selected natural products to suppress the catalytic activity of HER2 kinase. The assay adopts a Fluorescence Resonance Energy Transfer (FRET) based method in a cell-free coupled-enzyme format with no use of antibodies. The assay method mainly relies on the difference in sensitivity of phosphorylated and non-phosphorylated peptides to proteolytic cleavage. This method is a ratio metric method that calculates the Emission Ratio of donor emission divided by acceptor emission after excitation of the donor fluorophore at 400 nm. In this assay, 20 µL/well reactions containing kinase buffer, 200 µM ATP, 4µM Z’-LYTE Tyr6 Peptide substrate, 2500 ng/mL HER2 kinase, and drugs of interest functioning as inhibitors were set up in 96-well plates. Each well received 10 µL of site-specific protease development solution after one hour of room temperature incubation. The incubation continued for a full hour. Following process termination, the kinase inhibitory activity and/or peptide substrate cleavage status were assessed using a plate reader (BioTek FLx800™) to measure the ratio of fluorescence signal at 445 nm (coumarin)/520 nm (fluorescein).
The IC50 value for each natural product was computed using XLfit® 4.1 software (ID Business Solutions Inc. (IDBS), Emeryville CA), applying non-linear regression of log concentration against the percentage of HER2 inhibition.
Utilizing the Z’-LYTE™ Kinase Assay-Tyr6 Peptide kit as a cell-free system for evaluating the inhibitory activity of HER2, the five natural products were evaluated for their capacity to inhibit HER2 phosphorylation. Since its kinase catalysis is necessary for all HER2-mediated activities, we attempted at this initial stage to validate the HER2 inhibitory ability of the five in silico hits directly on the HER2 purified kinase domain (amino acids 676–1255), that was in vitro phosphorylated to attain the maximum level of intrinsic kinase activity. In this assay, the substrate was Z’-LYTE™ Tyr6 peptide; thus, the changes in its phosphorylation can directly correlate with the HER2 kinase activity. In the meantime, tyrphostin AG 1478 was used as a positive control to ensure the validity of the assay. Lapatinib (Tykerb®) was included as a second positive control to benchmark virtual hits’ performance against clinically approved standards.

[5] = test system: MCF10A cells; assay: MTT cytotoxicity assay, non-tumorigenic MCF10A; assay type: cell-based, human
[6] = test system: SKBR3 cells; assay: Wound healing assay, SKBR3; assay type: cell-based; settings: Homo sapiens
Description: as §1, §2, §3

[7] = test system: EGFR; set-up: method as in earlier work; settings: Table S1; cited from earlier work
[8] = test system: ERBB2; set-up: method as in earlier work; settings: Table S1; cited from earlier work
[9] = test system: ERBB4; set-up: method as in earlier work; settings: Table S1; cited from earlier work
[10] = Homo sapiens, BT-474, MTT, 48 h (Table S8), read-out: Cell growth inhibition IC50
[11] = Homo sapiens, BT-474, Table S9, read-out: IC50
[12] = Homo sapiens, SK-BR-3, SKBR3, MTT, 48 h (Table S8), read-out: Cell growth inhibition IC50

T1 sequence (P04626 676-1255): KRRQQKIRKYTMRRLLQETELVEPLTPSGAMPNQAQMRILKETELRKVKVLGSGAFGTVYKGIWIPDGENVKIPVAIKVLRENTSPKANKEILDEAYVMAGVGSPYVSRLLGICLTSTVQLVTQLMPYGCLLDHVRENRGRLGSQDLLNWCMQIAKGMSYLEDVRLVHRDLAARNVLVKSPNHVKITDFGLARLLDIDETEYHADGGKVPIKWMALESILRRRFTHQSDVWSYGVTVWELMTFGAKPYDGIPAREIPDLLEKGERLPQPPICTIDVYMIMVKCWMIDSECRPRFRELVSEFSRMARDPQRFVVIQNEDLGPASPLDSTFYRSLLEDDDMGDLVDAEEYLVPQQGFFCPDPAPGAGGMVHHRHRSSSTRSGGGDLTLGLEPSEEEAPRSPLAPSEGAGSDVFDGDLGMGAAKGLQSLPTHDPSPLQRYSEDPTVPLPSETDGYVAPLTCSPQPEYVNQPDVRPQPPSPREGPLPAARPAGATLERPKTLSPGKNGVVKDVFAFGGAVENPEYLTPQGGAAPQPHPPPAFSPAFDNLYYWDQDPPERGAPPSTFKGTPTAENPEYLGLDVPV

SMILES: O=c1cc(-c2ccccc2)oc2cc(O[C@@H]3O[C@H](CO[C@@H]4O[C@H](CO)[C@@H](O)[C@H](O)[C@H]4O)[C@@H](O)[C@H](O)[C@H]3O)c(O)c(O)c12 [Oroxin B]
- IC50 [1, 10]: 6.9 µM
- IC50 [1, 11]: 6.9 ± 0.7 µM
- IC50 ([2]; BT-474, read-out: IC50, cell migration): > 20 µM
- inhibition at 3 µM ([2]; BT-474, 3 µM, 72 h, read-out: inhibition of cell migration): 18.9%
- inhibition at 7 µM ([2]; BT-474, 7 µM, 72 h, read-out: inhibition of cell migration): 26.5%
- inhibition at 10 µM ([2]; BT-474, 10 µM, 72 h, read-out: inhibition of cell migration): 29.5%
- inhibition at 20 µM ([2]; BT-474, 20 µM, 72 h, read-out: inhibition of cell migration): 38.6%
- IC50 [3, 12]: 11.9 µM
- IC50 ([3]; Homo sapiens, SK-BR-3, SKBR3, Table S9, read-out: IC50): 11.9 ± 0.8 µM
- IC50 ([4]; cell-free Z'-LYTE): 0.0121 µM
- IC50 ([5]; Homo sapiens, MCF-10A, MCF10A, MTT, 24 h): 53 ± 2.1 µM
- selectivity index (SI) ([5]; IC50 MCF10A / IC50 BT-474): 7.7
- selectivity index (SI) ([5]; IC50 MCF10A / IC50 SKBR3): 4.5
- IC50 ([6]; SK-BR-3, read-out: IC50, cell migration): > 36 µM
- inhibition at 6 µM ([6]; SK-BR-3, SKBR3, 6 µM, 72 h, read-out: inhibition of cell migration): 23.5%
- inhibition at 12 µM ([6]; SK-BR-3, SKBR3, 12 µM, 72 h, read-out: inhibition of cell migration): 26.5%
- inhibition at 18 µM ([6]; SK-BR-3, SKBR3, 18 µM, 72 h, read-out: inhibition of cell migration): 31.1%
- inhibition at 36 µM ([6]; SK-BR-3, SKBR3, 36 µM, 72 h, read-out: inhibition of cell migration): 34.8%

- IC50 ([1]; BT-474, MTT, 48 h (Table S8), read-out: Cell growth inhibition IC50): 6 µM
- IC50 ([3]; SKBR3, MTT, 48 h (Table S8), read-out: Cell growth inhibition IC50): 12.7 µM
- IC50 ([4]; cell-free Z'-LYTE): 0.0365 µM
SMILES: C[C@@H]1O[C@@H](OC[C@H]2O[C@@H](Oc3cc(O)c4c(=O)cc(-c5ccc(O)cc5)oc4c3)[C@H](O[C@@H]3O[C@@H](C)[C@H](O)[C@@H](O)[C@H]3O)[C@@H](O)[C@@H]2O)[C@H](O)[C@H](O)[C@H]1O [Ligustroflavone]

- IC50 [1, 10]: 0.117 µM
- IC50 ([1]; Homo sapiens, BT-474, MTT, 48 h, read-out: IC50): 0.118 µM
- IC50 ([3]; Homo sapiens, SK-BR-3, SKBR3, MTT, 48 h, read-out: IC50): 0.153 µM
- inhibition at 0.015 µM ([4]; at 15 nM): 54%
- inhibition at 0.03 µM ([4]; at 30 nM): 75%
SMILES: CS(=O)(=O)CCNCc1ccc(-c2ccc3ncnc(Nc4ccc(OCc5cccc(F)c5)c(Cl)c4)c3c2)o1 [Lapatinib, reference compound]

- IC50 [1, 10]: 5.9 µM
- IC50 [3, 12]: 11 µM
- IC50 ([4]; cell-free Z'-LYTE): 0.0377 µM
SMILES: OC[C@H]1O[C@@H](Oc2cc(O)cc(/C=C/c3ccc(O[C@@H]4O[C@H](CO)[C@@H](O)[C@H](O)[C@H]4O)cc3O)c2)[C@H](O)[C@@H](O)[C@@H]1O [Mulberroside A]

SMILES: COc1cc2ncnc(Nc3ccc(F)c(Cl)c3)c2cc1NC(=O)/C=C/CN1CCCCC1 [Dacomitinib]
- IC50 [7]: 0.006 µM

SMILES: CN[C@@H]1C[C@H]2O[C@@](C)([C@@H]1OC)n1c3ccccc3c3c4c(c5c6ccccc6n2c5c31)C(=O)NC4 [Staurosporine, reference compound]
- IC50 [1, 10]: 3.2 µM
- IC50 [1, 11]: 3.2 ± 0.3 µM

SMILES: OC[C@H]1O[C@@H](Oc2cc3c(O[C@@H]4O[C@H](CO)[C@@H](O)[C@H](O)[C@H]4O)cc(O)cc3[o+]c2-c2cc(O)c(O)c(O)c2)[C@H](O)[C@@H](O)[C@@H]1O [Delphin, Delphinidin-3,5-O-diglucoside]
- suppression of HER2 phosphorylation ([4]; cell-free Z'-LYTE): no discernible suppression
